Reference: article PMC8765781, “A platform of assays for the discovery of anti-Zika small-molecules with activity in a 3D-bioprinted outer-blood-retina model” (PLoS ONE, 2022)
Read-outs that look alike come from different tables or passages of the source.

Assays:
[1] = system: Vero cells
[2] = system: ZIKV-RLuc (Cambodian strain FSS13025); assay: microbe, parasite or virus in culture; type: cell-based, Zika virus
[3] = Zika virus, Vero, read-out: Log AC50 (M) (converted)

| Compound | AC50 [1] | Log AC50 (M) [1] | CC-v2 (curve class classification v2 of the dose response curve) [2] | Efficacy (difference between neutral response and maximum compound response) [2] | Max Resp (difference between neutral response and compound response for highest compound concentration) [2] | AC50 ([2]; Zika virus, Vero) | AC50 [2, 3] | AC50 [2] | Log AC50 (M) [2] |
| --- | --- | --- | --- | --- | --- | --- | --- | --- | --- |
| Cc1c(Cn2c(C)nc3c(C(=O)O)cc(N4CCOCC4)cc32)cccc1C(F)(F)F [NCGC00345796-01] | 14.7 µM | -4.8327 M | -2.2 | -74.499 | -73.923 | 1.47e-05 M | 1.47e-05 M | – | – |
| O=C(CCCCCCNC(=O)c1cnc(N(c2ccccc2)c2ccccc2)nc1)NO [NCGC00345802-01] | 18.5 µM | -4.7327 M | -2.1 | -102.183 | -84.021 | 1.85e-05 M | 1.85e-05 M | – | – |
| CN(C)Cc1c(C(=O)NCCOc2ccc(C(=O)NO)cc2)oc2ccccc12 [NCGC00346486-01] | 9.28 µM | -5.0327 M | -1.1 | -96.645 | -98.785 | 9.28e-06 M | 9.27e-06 M | – | – |
| O=C1NC(=O)/C(=C/c2ccc3nccc(-c4ccncc4)c3c2)S1 [NCGC00346509-02] | 1.47 µM | -5.8327 M | -1.1 | -91.751 | -97.47 | 1.47e-06 M | 1.47e-06 M | – | – |
| Cc1ccc(NC(=O)c2ccc(CN3CC[C@H](N(C)C)C3)c(C(F)(F)F)c2)cc1Nc1ncc(-c2cncnc2)cn1 [NCGC00346514-01] | 16.5 µM | -4.7827 M | -2.1 | -111.251 | -100.269 | 1.65e-05 M | 1.65e-05 M | – | – |
| C[C@@H]1CC[C@@]2(OC1)O[C@H]1C[C@H]3[C@@H]4CC=C5C[C@@H](O[C@@H]6O[C@H](CO)[C@@H](O[C@@H]7O[C@@H](C)[C@H](O)[C@@H](O)[C@H]7O)[C@H](O)[C@H]6O[C@@H]6O[C@@H](C)[C@H](O)[C@@H](O)[C@H]6O)CC[C@]5(C)[C@H]4CC[C@]3(C)[C@H]1[C@@H]2C [NCGC00346600-01] | 3.29 µM | -5.4827 M | -1.1 | -96.499 | -99.01 | 3.29e-06 M | 3.29e-06 M | – | – |
| O=C(O)C1=CO[C@@H](O[C@@H]2O[C@H](CO)[C@@H](O)[C@H](O)[C@H]2O)[C@@H]2C(CO)=CC[C@H]12 [NCGC00346663-03] | 25.6 µM | -4.5925 M | -3 | -105.712 | -86.968 | 2.56e-05 M | 2.56e-05 M | – | – |
| CC(C)c1cc(-c2n[nH]c(=O)n2-c2ccc3c(ccn3C)c2)c(O)cc1O [NCGC00346678-01] | 8.27 µM | -5.0827 M | -2.2 | -44.79 | -44.962 | 8.27e-06 M | 8.27e-06 M | – | – |
| CC(C)c1cc(-c2n[nH]c(=O)n2-c2ccc3c(ccn3C)c2)c(O)cc1O [NCGC00346678-04] | 9.28 µM | -5.0327 M | -2.2 | -65.758 | -62.389 | – | – | 9.28e-06 M | -5.0327 |
| CNC(=O)c1cccc(-c2ccc3c(N4CCOC[C@@H]4C)nc(N4CCOC[C@@H]4C)nc3n2)c1 [NCGC00346698-01] | 16.5 µM | -4.7827 M | -2.2 | -76.837 | -71.465 | 1.65e-05 M | 1.65e-05 M | – | – |
| CCN(CC)Cc1ccc2cc(COC(=O)Nc3ccc(C(=O)NO)cc3)ccc2c1 [NCGC00346743-01] | 2.61 µM | -5.5827 M | -1.2 | -68.967 | -98.985 | 2.61e-06 M | 2.61e-06 M | – | – |
| COc1cc(C(=O)NC2CCN(C)CC2)ccc1Nc1ncc2c(n1)N(C1CCCC1)CCC(=O)N2C(C)C [NCGC00346965-01] | 13.1 µM | -4.8827 M | -2.4 | -47.886 | -47.265 | 1.31e-05 M | 1.31e-05 M | – | – |
| CCOC(=O)N1CCN(/[N+]([O-])=N/Oc2ccc([N+](=O)[O-])cc2C#N)CC1 [NCGC00346969-01] | 3.29 µM | -5.4827 M | -1.1 | -94.201 | -99.104 | 3.29e-06 M | 3.29e-06 M | – | – |
| C=C1[C@@H](O)[C@]2(O)OC[C@]34C2[C@]2(C)C(C[C@H]3OC(=O)[C@H](O)[C@@]14O)C(C)=CC(=O)[C@H]2O (stereo partly drawn) [NCGC00347491-02] | 7.23 µM | -5.1408 M | -2.2 | -33.078 | -33.995 | 7.23e-06 M | 7.23e-06 M | – | – |
| CC(C)C(=O)O[C@H]1[C@@H]2[C@H](C)C(=O)O[C@@H]2C[C@@H](C)[C@@H]2C=CC(=O)[C@]21C [NCGC00347562-02] | 22.8 µM | -4.6425 M | -3 | -106.49 | -96.985 | 2.28e-05 M | 2.28e-05 M | – | – |
| C=C(C)C1Cc2c(cc(O)c3c2OC2COc4cc(OC)c(OC)cc4C2(O)C3=O)O1 (stereo not drawn) [NCGC00347649-02] | 0.0927 µM | – | -1.1 | -91.85 | -97.372 | 9.28e-08 M | 9.27e-08 M | – | – |
| COC(=O)C1(Cc2ccc(O)c(CC=C(C)C)c2)OC(=O)C(OC)=C1c1cc(O)c(O)c(CC=C(C)C)c1 (stereo not drawn) [NCGC00347732-02] | 9.28 µM | -5.0327 M | -1.1 | -101.002 | -99.456 | 9.28e-06 M | 9.27e-06 M | – | – |
| CC(C)=CCCC(C)(O)CCCC(C)(O)CCCC(C)(O)CCCC(C)(O)CCCC(C)(O)CCCC(C)(O)C(O)CC/C(C)=C/CC/C(C)=C/CO[C@@H]1O[C@H](CO)[C@@H](O)[C@H](O)[C@H]1O (stereo partly drawn) [NCGC00347748-02] | 3.62 µM | -5.4408 M | -1.1 | -100.94 | -99.117 | 3.62e-06 M | 3.62e-06 M | – | – |
| CC(=O)OC1C=C(CO)C(=O)C(OC(=O)CC(C)C)C1C(C)C (stereo not drawn) [NCGC00347760-02] | 36.9 µM | -4.4327 M | -3 | -123.001 | -99.998 | 3.69e-05 M | 3.69e-05 M | – | – |
